Measured values from ChEMBL document CHEMBL1201861, “Genomics of Drug Sensitity in Cancer screening data, Wellcome Trust Sanger Institute”.

Tests used:
Assay in all cases: cells
D-392MG = assay type: functional, cell-based, Homo sapiens; settings: Homo sapiens, D-392MG
SK-UT-1 = assay type: functional, cell-based, Homo sapiens; settings: Homo sapiens, SK-UT-1;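 also: growth inhibition of SK-UT-1 cells, measured by a cell viability assay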
Description: SANGER: Inhibition of human SK-UT-1 cell growth in a cell viability assay.

OVCAR-4 = assay type: functional, cell-based, Homo sapiens; settings: Homo sapiens, OVCAR-4;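 also: growth inhibition of human OVCAR-4 cells, measured with a cell viability assay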
Description: SANGER: Inhibition of human OVCAR-4 cell growth in a cell viability assay.

SF-126 = assay type: functional, cell-based, Homo sapiens; settings: Homo sapiens, SF-126;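 also: growth inhibition of human SF126 cells, read out with a cell viability assay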
Description: SANGER: Inhibition of human SF126 cell growth in a cell viability assay.

KNS-42 = assay type: functional, cell-based, Homo sapiens; settings: Homo sapiens, KNS-42;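 also: growth inhibition of KNS-42 cells, read out with a cell viability assay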
Description: SANGER: Inhibition of human KNS-42 cell growth in a cell viability assay.

DU-4475 = assay type: functional, cell-based; settings: Homo sapiens
Description: SANGER: Inhibition of human DU-4475 cell growth in a cell viability assay.

ATN-1 = assay type: functional, cell-based; settings: Homo sapiens;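 also: growth inhibition of human ATN-1 cells, read out with a cell viability assay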
Description: SANGER: Inhibition of human ATN-1 cell growth in a cell viability assay.

MEG-01 = assay type: functional, cell-based; settings: Homo sapiens;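 also: growth inhibition of MEG-01 cells, read out by a cell viability assay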
Description: SANGER: Inhibition of human MEG-01 cell growth in a cell viability assay.

SJSA-1 = assay type: functional, cell-based, Homo sapiens; settings: Homo sapiens, SJSA-1;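 also: growth inhibition of human SJSA-1 cells, read out through a cell viability measurement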
Description: SANGER: Inhibition of human SJSA-1 cell growth in a cell viability assay.

MZ2-MEL = assay type: functional, cell-based, Homo sapiens; settings: Homo sapiens, MZ2-MEL;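 also: growth inhibition of MZ2-MEL cells read out with a cell viability assay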
Description: SANGER: Inhibition of human MZ2-MEL cell growth in a cell viability assay.

SHP77 = assay type: functional, cell-based, Homo sapiens, SHP-77; settings: Homo sapiens, SHP77;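 also: growth inhibition of human SHP-77 cells measured by a cell viability assay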
Description: SANGER: Inhibition of human SHP-77 cell growth in a cell viability assay.

LU-139 = assay type: functional, cell-based; settings: Homo sapiens
Description: SANGER: Inhibition of human LU-139 cell growth in a cell viability assay.

ES7 = assay type: functional, cell-based, Homo sapiens; settings: Homo sapiens, ES7;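 also: growth inhibition of cultured human ES7 cells, read out as cell viability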
Description: SANGER: Inhibition of human ES7 cell growth in a cell viability assay.

MZ1-PC = assay type: functional, cell-based, Homo sapiens; settings: Homo sapiens, MZ1-PC;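 also: cell viability assay measuring growth inhibition of human MZ1-PC cells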
Description: SANGER: Inhibition of human MZ1-PC cell growth in a cell viability assay.

J-RT3-T3-5 = assay type: functional, cell-based; settings: Homo sapiens;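 also: cell viability assay measuring growth inhibition of human J-RT3-T3-5 cells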
Description: SANGER: Inhibition of human J-RT3-T3-5 cell growth in a cell viability assay.

EKVX = assay type: functional, cell-based, Homo sapiens; settings: Homo sapiens, EKVX;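 also: growth inhibition of human EKVX cells, read out with a cell viability assay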
Description: SANGER: Inhibition of human EKVX cell growth in a cell viability assay.

GR-ST = assay type: functional, cell-based; settings: Homo sapiens
Description: SANGER: Inhibition of human GR-ST cell growth in a cell viability assay.

SW 962 = assay type: functional, cell-based, Homo sapiens; settings: Homo sapiens, SW 962;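 also: growth inhibition of human SW962 cells, read out by a cell viability assay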
Description: SANGER: Inhibition of human SW962 cell growth in a cell viability assay.

LC-2-ad = assay type: functional, cell-based, Homo sapiens; settings: Homo sapiens, LC-2-ad;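 also: growth inhibition of human LC-2-ad cells, read out with a cell viability assay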
Description: SANGER: Inhibition of human LC-2-ad cell growth in a cell viability assay.

SH-4 = assay type: functional, cell-based, Homo sapiens; settings: Homo sapiens, SH-4;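 also: growth inhibition of SH-4 cells, read out with a cell viability assay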
Description: SANGER: Inhibition of human SH-4 cell growth in a cell viability assay.

TE-12 = assay type: functional, cell-based; settings: Homo sapiens;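 also: growth inhibition of TE-12 cells, read out by a cell viability assay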
Description: SANGER: Inhibition of human TE-12 cell growth in a cell viability assay.

KARPAS-45 = assay type: functional, cell-based; settings: Homo sapiens;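 also: inhibition of cell line growth, read out through a viability assay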
Description: SANGER: Inhibition of human KARPAS-45 cell growth in a cell viability assay.

NCI-H1581 = assay type: functional, cell-based, Homo sapiens; settings: Homo sapiens, NCI-H1581;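 also: cell growth inhibition read out by a viability assay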
Description: SANGER: Inhibition of human NCI-H1581 cell growth in a cell viability assay.

EW-13 = assay type: functional, cell-based; settings: Homo sapiens;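 also: growth inhibition of EW-13 cells, read out with a cell viability assay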
Description: SANGER: Inhibition of human EW-13 cell growth in a cell viability assay.

COLO-320-HSR = assay type: functional, cell-based; settings: Homo sapiens;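 also: growth inhibition of COLO-320-HSR cells, determined with a cell viability assay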
Description: SANGER: Inhibition of human COLO-320-HSR cell growth in a cell viability assay.

HT = assay type: functional, cell-based; settings: Homo sapiens
Description: SANGER: Inhibition of human HT cell growth in a cell viability assay.

RS4-11 = assay type: functional, cell-based; settings: Homo sapiens;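 also: growth inhibition of RS4-11 cells, read out by a cell viability assay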
Description: SANGER: Inhibition of human RS4-11 cell growth in a cell viability assay.

SCH = assay type: functional, cell-based, Homo sapiens; settings: Homo sapiens, SCH;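 also: growth inhibition of human SCH cells, read out in a cell viability assay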
Description: SANGER: Inhibition of human SCH cell growth in a cell viability assay.

EW-24 = assay type: functional, cell-based; settings: Homo sapiens;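 also: human EW-24 cancer cell line, growth inhibition read out via a cell viability assay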
Description: SANGER: Inhibition of human EW-24 cell growth in a cell viability assay.

KLE = assay type: functional, cell-based, Homo sapiens; settings: Homo sapiens, KLE;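 also: growth inhibition of human KLE cells, read out with a cell viability assay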
Description: SANGER: Inhibition of human KLE cell growth in a cell viability assay.

Structure (SMILES)	IC50 (SK-UT-1)	IC50 (OVCAR-4)	IC50 (SF-126)	IC50 (KNS-42)	IC50 (DU-4475)	IC50 (ATN-1)	IC50 (MEG-01)	IC50 (SJSA-1)	IC50 (MZ2-MEL)	IC50 (SHP77)	IC50 (LU-139)	IC50 (ES7)	IC50 (MZ1-PC)	IC50 (J-RT3-T3-5)	IC50 (EKVX)	IC50 (GR-ST)	IC50 (SW 962)	IC50 (LC-2-ad)	IC50 (SH-4)	IC50 (TE-12)	further results
CCc1nc(N)nc(N)c1-c1ccc(Cl)cc1 [PYRIMETHAMINE]	> 20000 nM	4150 nM	> 20000 nM	> 20000 nM	> 20000 nM	1780 nM	11800 nM	3770 nM	> 20000 nM	> 20 µM	11.1 µM	14.8 µM	> 20000 nM	2220 nM	> 20000 nM	709 nM	> 20000 nM	> 20000 nM	> 20000 nM	> 20000 nM	IC50 (D-392MG): > 20 µM; IC50 (KARPAS-45): > 20000 nM; IC50 (NCI-H1581): > 20000 nM; IC50 (EW-13): > 20 µM; IC50 (COLO-320-HSR): 4000 nM; IC50 (HT): > 20000 nM; IC50 (RS4-11): > 20000 nM; IC50 (SCH): 16.9 µM; IC50 (EW-24): > 20000 nM
O=C(/C=C/c1ccccc1)NC(NC(=S)Nc1cccc2cccnc12)C(Cl)(Cl)Cl (configuration not stated) [SALUBRINAL]	> 16000 nM	14800 nM	> 16000 nM	> 16000 nM	> 16000 nM	12000 nM	> 16000 nM	> 16000 nM	> 16000 nM	> 16 µM	14 µM	> 16 µM	> 16000 nM	14700 nM	> 16000 nM	> 16000 nM	> 16000 nM	> 16000 nM	> 16000 nM	11300 nM	IC50 (D-392MG): > 16 µM; IC50 (KARPAS-45): > 16000 nM; IC50 (NCI-H1581): > 16000 nM; IC50 (EW-13): > 16 µM; IC50 (COLO-320-HSR): > 16000 nM; IC50 (HT): 8940 nM; IC50 (RS4-11): > 16000 nM; IC50 (SCH): > 16 µM; IC50 (EW-24): > 16000 nM
Cc1cc(Nc2cc(N3CCN(C)CC3)nc(Sc3ccc(NC(=O)C4CC4)cc3)n2)n[nH]1 [TOZASERTIB]	160 nM	> 2000 nM	948 nM	> 2000 nM	1020 nM	> 2000 nM	278 nM	> 2000 nM	> 2000 nM	> 2 µM	> 2 µM	> 2 µM	> 2000 nM	> 2000 nM	> 2000 nM	> 2000 nM	> 2000 nM	87.9 nM	> 2000 nM	> 2000 nM	IC50 (KARPAS-45): > 2000 nM; IC50 (NCI-H1581): > 2000 nM; IC50 (KLE): > 2000 nM; IC50 (EW-13): > 2 µM; IC50 (COLO-320-HSR): > 2000 nM; IC50 (HT): > 2000 nM; IC50 (RS4-11): 4.04 nM; IC50 (SCH): > 2 µM; IC50 (EW-24): > 2000 nM
CN1CCN(CCOc2cc(OC3CCOCC3)c3c(Nc4c(Cl)ccc5c4OCO5)ncnc3c2)CC1 [SARACATINIB]	> 2000 nM	> 2000 nM	> 2000 nM	> 2000 nM	> 2000 nM	> 2000 nM	237 nM	> 2000 nM	> 2000 nM	> 2 µM	> 2 µM	> 2 µM	> 2000 nM	> 2000 nM	> 2000 nM	> 2000 nM	> 2000 nM	> 2000 nM	> 2000 nM	327 nM	IC50 (KARPAS-45): > 2000 nM; IC50 (NCI-H1581): > 2000 nM; IC50 (KLE): > 2000 nM; IC50 (EW-13): > 2 µM; IC50 (COLO-320-HSR): > 2000 nM; IC50 (HT): > 2000 nM; IC50 (RS4-11): > 2000 nM; IC50 (EW-24): 627 nM
C=C1C(=O)O[C@@H]2C3O[C@]3(C)CC/C=C(\C)CC[C@@H]12 (some centres not stated)	> 5000 nM	> 5000 nM	> 5000 nM	> 5000 nM	> 5000 nM	> 5000 nM	> 5000 nM	> 5000 nM	> 5000 nM	> 5 µM	> 5 µM	> 5 µM	> 5000 nM	> 5000 nM	> 5000 nM	> 5000 nM	> 5000 nM	> 5000 nM	> 5000 nM	> 5000 nM	IC50 (D-392MG): > 5 µM; IC50 (KARPAS-45): > 5000 nM; IC50 (NCI-H1581): > 5000 nM; IC50 (EW-13): > 5 µM; IC50 (COLO-320-HSR): > 5000 nM; IC50 (HT): > 5000 nM; IC50 (RS4-11): > 5000 nM; IC50 (SCH): > 5 µM; IC50 (EW-24): > 5000 nM
CO[C@H]1C[C@@H]2CC[C@@H](C)[C@@](O)(O2)C(=O)C(=O)N2CCCC[C@H]2C(=O)O[C@H]([C@H](C)C[C@@H]2CC[C@@H](O)[C@H](OC)C2)CC(=O)[C@H](C)/C=C(\C)[C@@H](O)[C@@H](OC)C(=O)[C@H](C)C[C@H](C)/C=C/C=C/C=C/1C [SIROLIMUS]	16.8 nM	> 100 nM	30.4 nM	> 100 nM	> 100 nM	> 100 nM	> 100 nM	> 100 nM	> 100 nM	> 0.1 µM	> 0.1 µM	> 0.1 µM	> 100 nM	6.46 nM	> 100 nM	0.846 nM	> 100 nM	0.423 nM	4.34 nM	> 100 nM	IC50 (KARPAS-45): > 100 nM; IC50 (NCI-H1581): > 100 nM; IC50 (KLE): > 100 nM; IC50 (EW-13): > 0.1 µM; IC50 (COLO-320-HSR): > 100 nM; IC50 (HT): 17.6 nM; IC50 (RS4-11): > 100 nM; IC50 (EW-24): > 100 nM
CCC(=O)N1CCN(c2ccc(-n3c(=O)ccc4cnc5ccc(-c6cnc7ccccc7c6)cc5c43)cc2C(F)(F)F)CC1 [TORIN1]	22.6 nM	30.9 nM	43.6 nM	82 nM	91.7 nM	27.9 nM	186 nM	41.9 nM	23.4 nM	> 1.2 µM	0.13 µM	> 1.2 µM	66 nM	91.5 nM	445 nM	26.5 nM	57.6 nM	21.4 nM	35.8 nM	25.5 nM	IC50 (KARPAS-45): 782 nM; IC50 (NCI-H1581): 297 nM; IC50 (KLE): 65.8 nM; IC50 (EW-13): > 1.2 µM; IC50 (COLO-320-HSR): 131 nM; IC50 (HT): 80 nM; IC50 (RS4-11): 59.4 nM; IC50 (SCH): 0.14 µM; IC50 (EW-24): > 1200 nM
CNC(=O)c1cc(Oc2ccc(NC(=O)Nc3ccc(Cl)c(C(F)(F)F)c3)cc2)ccn1 [SORAFENIB]	> 4000 nM	2210 nM	1640 nM	> 4000 nM	> 4000 nM	> 4000 nM	1810 nM	> 4000 nM	> 4000 nM	> 4 µM	> 4 µM	> 4 µM	3480 nM	> 4000 nM	> 4000 nM	> 4000 nM	> 4000 nM	> 4000 nM	656 nM	> 4000 nM	IC50 (D-392MG): > 4 µM; IC50 (KARPAS-45): > 4000 nM; IC50 (NCI-H1581): > 4000 nM; IC50 (EW-13): > 4 µM; IC50 (COLO-320-HSR): > 4000 nM; IC50 (HT): > 4000 nM; IC50 (SCH): > 4 µM; IC50 (EW-24): > 4000 nM
CS(=O)(=O)CCNCc1ccc(-c2ccc3ncnc(Nc4ccc(OCc5cccc(F)c5)c(Cl)c4)c3c2)o1 [LAPATINIB]	> 2000 nM	> 2000 nM	> 2000 nM	> 2000 nM	> 2000 nM	> 2000 nM	> 2000 nM	> 2000 nM	> 2000 nM	> 2 µM	> 2 µM	> 2 µM	> 2000 nM	> 2000 nM	449 nM	> 2000 nM	> 2000 nM	> 2000 nM	> 2000 nM	491 nM	IC50 (D-392MG): > 2 µM; IC50 (KARPAS-45): > 2000 nM; IC50 (NCI-H1581): > 2000 nM; IC50 (EW-13): > 2 µM; IC50 (COLO-320-HSR): > 2000 nM; IC50 (HT): > 2000 nM; IC50 (RS4-11): > 2000 nM; IC50 (SCH): > 2 µM; IC50 (EW-24): > 2000 nM
CC1=C2C[C@H]3[C@@H](CC=C4C[C@@H](O)CC[C@@]43C)[C@@H]2CC[C@]12O[C@@H]1C[C@H](C)CN[C@H]1[C@H]2C [CYCLOPAMINE]	> 16000 nM	> 16000 nM	> 16000 nM	> 16000 nM	> 16000 nM	> 16000 nM	> 16000 nM	> 16000 nM	> 16000 nM	> 16 µM	> 16 µM	> 16 µM	> 16000 nM	> 16000 nM	> 16000 nM	> 16000 nM	> 16000 nM	> 16000 nM	> 16000 nM	> 16000 nM	IC50 (D-392MG): > 16 µM; IC50 (KARPAS-45): > 16000 nM; IC50 (NCI-H1581): > 16000 nM; IC50 (EW-13): > 16 µM; IC50 (COLO-320-HSR): > 16000 nM; IC50 (HT): > 16000 nM; IC50 (RS4-11): > 16000 nM; IC50 (SCH): > 16 µM; IC50 (EW-24): > 16000 nM
